What follows are molecules tested on IL-6 (assay: Human monocyte assay, LPS-stimulated IL-6). Conditions: Monocyte; human monocytes, 1 μg/ml LPS, 5 hours.
Type: cell-based
Procedure: The assay was designed as in the reference, Physiol.
Peripheral blood mononuclear cells (hPBMC) were harvested from human blood and suspended in RPMI 1640 culture medium containing 10% FCS, 100 U/mL penicillin and […] streptomycin (assay medium). Monocytes in the hPBMCs were counted using a Coulter Counter following which the cells were resuspended at 2×10^5 monocytes/mL. A cell suspension containing 2×10^4 monocytes was aliquoted per well of a 96-well plate. Subsequently, the hPBMCs were incubated for 4-5 hours at 37° C., 5% CO2 (During the incubation, the monocytes adhered to the bottom of 96-well plastic culture plate). Following the incubation, the non-adherent lymphocytes were washed with assay medium and the adherent monocytes re-fed with assay medium. After a 48-hour incubation period (37° C., 5% CO2), monocytes were pretreated with various concentrations of representative compounds of present invention (refer to table 6 and 7) (prepared in DMSO) or vehicle (0.5% DMSO) for 30 minutes and stimulated with 1 μg/ml LPS (Escherchia coli 0111:B4, Sigma Chemical Co., St. Louis, Mo.). The incubation was continued for 5 hours at 37° C., 5% CO2. Supernatants were harvested, assayed for IL-6 and TNF-α by ELISA as described by the manufacturer (BD Biosciences, USA). Dexamethasone (10 μM) was used as standard for this assay. […] Biological results for both IL-6 and TNFα are indicated in Table 6 and Table 7 respectively.

| IC50 [µM] | SMILES |
| --- | --- |
| 0.001 to 5 | CN(/N=C/c1cnc2ccc(-c3cccnc3)cn12)S(=O)(=O)c1ccc(N2CCOCC2)nc1 [Example 66, (E)-N-methyl-6-morpholino-N′-((6-(pyridin-3-yl)imidazo[1,2-a]pyridin-3-yl)methylene) pyridine-3-sulfonohydrazide] |
| 0.001 to 5 | COC(=O)c1ccc(S(=O)(=O)N(C)/N=C/c2cnc3ccc(-c4cccnc4)cn23)n1C [Example 67, (E)-Methyl 1-methyl-5-(1-methyl-2-((6-(pyridin-3-yl)imidazo[1,2-a]pyridin-3-yl)methylene) hydrazinylsulfonyl)-1H-pyrrole-2-carboxylate] |
| 0.001 to 5 | CN1CCOc2cc(S(=O)(=O)N(C)/N=C/c3cnc4ccc(-c5cccnc5)cn34)cnc21 [Example 68, (E)-N,4-dimethyl-N′-((6-(pyridin-3-yl)imidazo[1,2-a]pyridin-3-yl)methylene)-3,4-dihydro-2H-pyrido[3,2-b][1,4]oxazine-7-sulfonohydrazide] |
| 0.001 to 5 | CN(/N=C/c1cnc2ccc(-c3cccnc3)cn12)S(=O)(=O)c1cccnc1 [Example 69, (E)-N-methyl-N′-((6-(pyridin-3-yl)imidazo[1,2-a]pyridin-3-yl)methylene) pyridine-3-sulfonohydrazide] |
| 0.001 to 5 | CN(/N=C/c1cnc2ccc(-c3cccnc3)cn12)S(=O)(=O)c1ccc(Oc2ccccc2)cc1 [Example 70, (E)-N-methyl-4-phenoxy-N′-((6-(pyridin-3-yl)imidazo[1,2-a]pyridin-3-yl)methylene)benzenesulfonohydrazide] |
| ≥ 5 | CN(/N=C/c1cnc2ccc(-c3cccnc3)cn12)S(=O)(=O)c1ccc(-c2ccccc2)cc1 [Example 72, (E)-N-methyl-N′-((6-(pyridin-3-yl)imidazo[1,2-a]pyridin-3-yl)methylene)biphenyl-4-sulfonohydrazide] |
| 0.001 to 5 | CN(/N=C/c1cnc2ccc(-c3cccnc3)cn12)S(=O)(=O)c1ccc(Cl)c([N+](=O)[O-])c1 [Example 74, (E)-4-chloro-N-methyl-3-nitro-N′-((6-(pyridin-3-yl)imidazo[1,2-a]pyridin-3-yl)methylene) benzenesulfonohydrazide] |
| 0.001 to 5 | Cc1ccc(F)cc1S(=O)(=O)N(C)/N=C/c1cnc2ccc(-c3cccnc3F)cn12 [Example 87, (E)-5-Fluoro-N′-((6-(2-fluoropyridin-3-yl)imidazo[1,2-a]pyridin-3-yl)methylene)-N,2-dimethylbenzenesulfonohydrazide] |
| ≥ 5 | Cc1cc(-c2cccnc2)cn2c(/C=N/N(C)S(=O)(=O)c3ccccc3C#N)cnc12 [Example 104, (E)-2-cyano-N-methyl-N′-((8-methyl-6-(pyridin-3-yl)imidazo[1,2-a]pyridin-3-yl)methylene)benzenesulfonohydrazide] |
| ≥ 5 | Cc1cc(-c2cccnc2)cn2c(/C=N/N(C)S(=O)(=O)c3cccc(C#N)c3)cnc12 [Example 106, (E)-3-cyano-N-methyl-N′-((8-methyl-6-(pyridin-3-yl)imidazo[1,2-a]pyridin-3-yl)methylene)benzenesulfonohydrazide] |
| 0.001 to 5 | Cc1cc(S(=O)(=O)N(C)/N=C/c2cnc3c(C)cc(-c4cccnc4)cn23)ccc1Br [Example 107, (E)-4-Bromo-N,3-dimethyl-N′-((8-methyl-6-(pyridin-3-yl)imidazo[1,2-a]pyridin-3-yl)methylene)benzenesulfonohydrazide] |
| ≥ 5 | Cc1cc(-c2cccnc2)cn2c(/C=N/N(C)S(=O)(=O)c3cccc([N+](=O)[O-])c3)cnc12 [Example 109, (E)-N-methyl-N′-((8-methyl-6-(pyridin-3-yl)imidazo[1,2-a]pyridin-3-yl)methylene)-3-nitrobenzenesulfonohydrazide] |
| ≥ 5 | Cc1cc(-c2cccnc2)cn2c(/C=N/N(C)S(=O)(=O)c3cccc(Cl)c3)cnc12 [Example 110, (E)-3-Chloro-N-methyl-N′-((8-methyl-6-(pyridin-3-yl)imidazo[1,2-a]pyridin-3-yl)methylene)benzenesulfonohydrazide] |
| 0.001 to 5 | Cc1cc(-c2cccnc2)cn2c(/C=N/N(C)S(=O)(=O)c3ccc(Cl)c([N+](=O)[O-])c3)cnc12 [Example 113, (E)-4-Chloro-N-methyl-N′-((8-methyl-6-(pyridin-3-yl)imidazo[1,2-a]pyridin-3-yl)methylene)-3-nitrobenzenesulfonohydrazide] |
| ≥ 5 | Cc1cc(-c2cccnc2)cn2c(/C=N/N(C)S(=O)(=O)c3ccc(F)cc3Br)cnc12 [Example 114, (E)-2-Bromo-4-fluoro-N-methyl-N′-((8-methyl-6-(pyridin-3-yl)imidazo[1,2-a]pyridin-3-yl)methylene)benzenesulfonohydrazide] |
| ≥ 5 | Cc1cc2ncc(C=NN(C)S(=O)(=O)c3ccccc3C#N)n2cc1-c1cccnc1 [Example 117, 2-Cyano-N-methyl-N′-((7-methyl-6-(pyridin-3-yl)imidazo[1,2-a]pyridin-3-yl)methylene) benzenesulfonohydrazide] |
| ≥ 5 | Cc1cc2ncc(C=NN(C)S(=O)(=O)c3cc(F)ccc3C)n2cc1-c1cccnc1 [Example 118, 5-Fluoro-N, 2-dimethyl-N′-((7-methyl-6-(pyridin-3-yl)imidazo[1,2-a]pyridin-3-yl)methylene) benzenesulfonohydrazide] |
| ≥ 5 | Cc1cccc(S(=O)(=O)N(C)/N=C/c2cnc3ccc(-c4cccnc4)c(C)n23)c1 [Example 127, (E)-N,3-dimethyl-N′-((5-methyl-6-(pyridin-3-yl)imidazo[1,2-a]pyridin-3-yl)methylene)benzenesulfonohydrazide] |
| 0.001 to 5 | Cc1ccc(-c2ccc3ncc(/C=N/N(C)S(=O)(=O)c4cc(F)ccc4C)n3c2)cn1 [Example 128, (E)-5-fluoro-N,2-dimethyl-N′-((6-(6-methylpyridin-3-yl)imidazo[1,2-a]pyridin-3-yl)methylene)benzenesulfonohydrazide] |
| ≥ 5 | Cc1ccc(-c2ccc3ncc(/C=N/N(C)S(=O)(=O)c4ccccc4OC(F)(F)F)n3c2)cn1 [Example 129, (E)-N-methyl-N′-((6-(6-methylpyridin-3-yl)imidazo[1,2-a]pyridin-3-yl)methylene)-2-(trifluoromethoxy)benzenesulfonohydrazide] |
| 0.001 to 5 | COc1ccc(F)cc1S(=O)(=O)N(C)/N=C/c1cnc2ccc(-c3ccc(C)nc3)cn12 [Example 130, (E)-5-Fluoro-2-methoxy-N-methyl-N′-((6-(6-methylpyridin-3-yl)imidazo[1,2-a]pyridin-3-yl)methylene)benzenesulfonohydrazide] |
| ≥ 5 | Cc1ccc(-c2ccc3ncc(/C=N/N(C)S(=O)(=O)c4ccccc4C)n3c2)cn1 [Example 131, (E)-N,2-dimethyl-N′-((6-(6-methylpyridin-3-yl)imidazo[1,2-a]pyridin-3-yl)methylene)benzenesulfonohydrazide] |
| 0.001 to 5 | Cc1ccc(F)cc1S(=O)(=O)N(C)/N=C/c1cnc2ccc(-c3cnc(F)c(C)c3)cn12 [Example 134, (E)-5-Fluoro-N′-((6-(6-fluoro-5-methylpyridin-3-yl)imidazo[1,2-a]pyridin-3-yl)methylene)-N,2-dimethylbenzenesulfonohydrazide] |
| ≥ 5 | COc1ccc(-c2ccc3ncc(/C=N/N(C)S(=O)(=O)c4cc(F)ccc4C)n3c2)cn1 [Example 137, (E)-5-fluoro-N′-((6-(6-methoxypyridin-3-yl)imidazo[1,2-a]pyridin-3-yl)methylene)-N,2-dimethylbenzenesulfonohydrazide] |
| ≥ 5 | Cc1ccc(F)cc1S(=O)(=O)N(C)/N=C/c1cnc2ccc(-c3cncc(C(F)(F)F)c3)cn12 [Example 139, (E)-5-fluoro-N, 2-dimethyl-N′-((6-(5-(trifluoromethyl)pyridin-3-yl)imidazo[1,2-a]pyridin-3-yl)methylene) benzenesulfonohydrazide] |
| 0.001 to 5 | CN(/N=C/c1cnc2ccc(-c3cccnc3)cn12)C(=O)NCc1ccccc1 [Example 141, (E)-N-benzyl-1-methyl-2-((6-(pyridin-3-yl)imidazo[1,2-a]pyridin-3-yl)methylene)hydrazinecarboxamide] |

Same assay, conditions: human monocytes, 1 μg/ml LPS, 5 hours

| IC50 [µM] | SMILES |
| --- | --- |
| ≥ 5 | COC(=O)c1ccc(S(=O)(=O)N(C)/N=C/c2cnc3ccc(-c4cccnc4)cn23)o1 [Example 73, (E)-Methyl 5-(1-methyl-2-((6-(pyridin-3-yl)imidazo[1,2-a]pyridin-3-yl)methylene) hydrazinylsulfonyl) furan-2-carboxylate] |
| 0.001 to 5 | Cc1cc(-c2cccnc2)cn2c(/C=N/N(C)S(=O)(=O)c3cc(F)cc(F)c3)cnc12 [Example 101] |
| ≥ 5 | Cc1cc(-c2cccnc2)cn2c(/C=N/N(C)S(=O)(=O)c3c(F)cc(F)cc3Br)cnc12 [Example 112] |
| 0.001 to 5 | Cc1ccc(F)cc1S(=O)(=O)N(C)/N=C/c1cnc2ccc(-c3ccc(Cl)nc3)cn12 [Example 135, (E)-N′-((6-(6-Chloropyridins-3-yl)imidazo[1,2-a]pyridin-3-yl)methylene)-5-fluoro-N,2-dimethylbenzenesulfonohydrazide] |

| SMILES | IC50 [µM] |
| --- | --- |
| COc1ncc(-c2ccc3ncc(/C=N/N(C)S(=O)(=O)c4cc(F)ccc4C)n3c2)cn1 [Example 138, (E)-5-Fluoro-N-((6-(2-methoxypyrimidin-5-yl)imidazo[1,2-a]pyridine-3-yl)methylene)-N, 2-dimethylbenzenesulfonohydrazide] | ≥ 5 |
